Where two headings read alike, the source gives them in different places.
What was measured:
[1] = molecular target: T1, Human serum albumin (HSA) (Homo sapiens, UniProt P02768); assay: Steady-state fluorescence quenching of HSA by anticancer leads; type: binding; settings: for ΔG: temperature-dependent fluorescence quenching
T1 construct: purchased Sigma-Aldrich A3782
Method: Steady-state fluorescence spectra were recorded on an Eclipse fluorescence spectrophotometer (Agilent Cary, USA) with a 1 cm path length quartz cuvette at 293 K and 298 K, respectively. Sample temperature was kept within ± 0.2 degree by recycled water throughout the experiment. The excitation and emission band passes were all set at 5 nm by keeping the excitation wavelength at 290 nm to achieve maximum fluorescence emission. The emission spectra was measured in the region of 305–450 nm, and the fluorescence intensity at peak position 340 nm was extracted for further analysis. HSA was diluted from stock solution with reaction buffer to a concentration of 10 μM for each quenching experiment. Titration was performed by successive addition of 1 mM anticancer leads into quartz cuvette, and the minor intensity decrease due to volume change was corrected by the control experiment.
In Fluorescence quenching, the inner filter effect (IFE) is of importance due to its effect on the emission intensity. One of the biggest causes of the IFE is the re-absorption of the emitted light in the excitation and emission region. It is an important issue that these effects cause severe underestimation of the fluorescence intensity measured because the concentration of the quencher increases when a Stern-Volmer analysis is carried out, and therefore the ability of the quencher to absorb the emitted light will also increase.
Where Aem and Aex represent the absorbance of small moecule at emission and excitation wavelength, respectively. F0 and Fc represent the observed fluorescence intensity and corrected fluorescence intensity, respectively.
In an attempt to gain insight into the molecular mechanism of HSA association, we have determined the binding mechanism, binding constant, binding site, and the number of binding sites. […] (1) Where F and F0 is the steady state fluorescence intensity in the presence and absence of quencher, respectively; Kq, τ0 and [Q] is the quenching rate constant, the average lifetime of the molecule without quencher and the concentration of quencher, respectively.
Modified Stern-Volmer plots are shown in Fig 3C and 3D, showing good linearity to modified Stern-Volmer equation: log[(F0−F)/F]=logKA+nlog[Q] (2)
F0−F/F0=Bmax(KA[Q])^h/1+(KA[Q])^h+Pnsb×[Q] (3)
Where F and F0 are the steady state fluorescence intensity in the presence and absence of quencher, respectively; [Q] is the concentration of quencher, Bmax is the maximum independent binding site classes, KA is the effective binding affinity; h is the Hill coefficient that describes the degree of ligand binding cooperativity and Pnsb is the nonspecific binding coefficient.
Usually, the types of interaction forces between small molecules and macromolecules mainly include hydrogen bonds, van der Waals forces, electrostatic interactions and hydrophobic interactions. To estimate the binding mode, the thermodynamic parameters, ΔH, ΔS and ΔG are often considered. On the basis of the characteristic signs of the thermodynamic parameters, the interaction forces between small molecule and protein can be assigned to hydrophobic interaction (ΔH > 0, ΔS > 0), van der Waals force (ΔH < 0, ΔS < 0) and electrostatic attraction (ΔH < 0, ΔS > 0). The entropy and enthalpy can be considered constant at a constant temperture, which is regulated by the van’t Hoff equation: lnKA=−ΔH/RT+ΔS/R (4)

[2] = molecular target: T1, Human serum albumin (HSA); assay: Isothermal titration calorimetry (ITC) of leads binding HSA; settings: 310 K
Method: The calorimetry measurement was carried out by isothermal titration calorimetry (ITC) (TA Instruments, USA) at 310 K. HSA in different reaction buffers (0.01 M PBS and 0.025 M MES) were extensively dialyzed before titration. […] The titration was afterward started with continuously stirring at 250 rpm. The raw heat rate data were integrated under injection peaks to obtain the reaction heat of each injection after substracting dilution heat which was measured by injecting with a blank control titration. The calculated heat changes were analyzed using the NANOanalyze software (TA Instruments, USA) and replotted with Origin 8.5. The free energy change (ΔG), enthalpy change (ΔH) and entropy change (ΔS) were calculated according to the thermodynamic formulas below: ΔG=−RTlnKA=ΔH−TΔS
Where KA is the association constant at the absolute temperature T (310 K) and R represents the gas constant (8.3151 J mol^-1K^-1).

[3] = molecular target: T1, Human serum albumin (HSA); assay: SPR binding kinetic measurement on immobilized HSA
Method: Binding kinetic measurement was performed using Reichert 4-chanel SPR instrument Reichert4SPR (Reichert, USA). HSA was immobilized on carboxymethyl dextran chip at the condition of 0.1 mg/mL protein in 10 mM sodium acetate (pH 4.5). The final density is about 12,000 RU and flow rate is 20 μl/min. During immobilizing, the sensor chip was preconditioned with 3-min injection of double diluted water. Thereafter, the first flow cell surface was activated through using 0.05 M N-hydroxysuccinimide (NHS)/0.2 M 1-ethyl-3-(3-dimethylaminopropyl)carbodiimide hydrochloride (EDC) for 7 min, and then functionalized by injecting a solution of HSA (0.1 mg/mL) in 10 mM sodium acetate buffer (pH 4.5) for 20 min. Finally, unreacted NHS groups were deactivated with 1 M ethanolamine (pH 8.5) for 10 min. Simultaneously, the control flow cell was treated using the same conditions as described above. […] Final data obtained were corrected for instrumental and bulk artifacts by double referencing to a control sensor chip surface and blank buffer injection. The binding responses were concentration-dependent and dissociation constant KD values were derived from 1:1 kinetic model as well as steady state analysis using TraceDrawer software (Reichert, USA).

[4] = molecular target: T1, Human serum albumin (HSA); assay: Fluorescence resonance energy transfer (FRET) distance HSA W214 to lead; type: binding; settings: Forster theory; k^2 = 2/3, N = 1.36, Φ = 0.15
Excerpt: Fluorescence resonance energy transfer (FRET) occurs when the UV absorption spectrum of small molecule (acceptor) overlaps with the fluorescence emission spectrum of fluoreophore (donor). The fluorescence emission peak of HSA mostly locates in the range of the UV-vis absorption spectra of the two anticancer leads (Fig 5A and 5B). This indicates the possibility of FRET occuring between HSA and anticancer leads. According to Forster’s non-radiative energy transfer theory, the distance r between donor W214 of HSA and the acceptor of small molecule is determined by the relationship below: E=1−F/F0=R0^6/R0^6+r^6 (5) where E is the energy transfer efficiency; F and F0 are the fluorescence intensity in the presence and absence of quencher. […] In this case here, k^2 = 2/3 is for random orientation as in fluid solution, N = 1.36, Φ = 0.15, and J is calculated as: J=∑F(λ)ε(λ)λ^4Δλ/∑F(λ)Δλ (7) where F(λ) is the fluorescence intensity of the fluorescence donor of wavelength λ; and ε(λ) is the molar absorption coefficient calculated by Lambert-Beer relationship ε(λ) = A(λ)/cl at wavelength λ. The integration step was chosen to be the scanning data interval of 1 nm.

plasma proteins = assay: Estimate of fraction bound to plasma proteins from association constants; parameters: species or system human; settings: estimated with Kd / ([P]f + Kd)
Excerpt: The function of HSA as drug carrier may facilitate drug access to the action site and be related to drug safety issues. Application of HSA on drug delivery may therefore be important in anticancer therapy, which has been taken into account in estimating therapeutic outcomes, particularly for highly bound compounds (defined as < 5% free drug compounds in blood). The free to bound drug rates can be estimated by using the formula Kd / ([P]f + Kd) through approximating the free protein concentration as [P]f = [P]T − [L]T [41]. […] Therefore, the affinity determines the steady state concentration of unbound or exposed drug in the plasma, maintaining a concentration gradient between the intestinal lumen and plasma, which is considered as the only fraction exerting the bioactivity. […] Moreover, both hepatic uptake and glomerular filtration are directly proportional to the free drug fraction presented in the plasma while drugs are modulated by the affinity difference of the plasma and tissue proteins. If a drug is highly bound to HSA and has a high extraction raio, the binding promotes metabolism by transporting the drug to liver, resulting in the decrease of free drug fraction. On the other hand, if a drug has a low liver extraction ratio, metabolism will be decreased by high HSA binding. […]

T1 sequence (P02768 25-609): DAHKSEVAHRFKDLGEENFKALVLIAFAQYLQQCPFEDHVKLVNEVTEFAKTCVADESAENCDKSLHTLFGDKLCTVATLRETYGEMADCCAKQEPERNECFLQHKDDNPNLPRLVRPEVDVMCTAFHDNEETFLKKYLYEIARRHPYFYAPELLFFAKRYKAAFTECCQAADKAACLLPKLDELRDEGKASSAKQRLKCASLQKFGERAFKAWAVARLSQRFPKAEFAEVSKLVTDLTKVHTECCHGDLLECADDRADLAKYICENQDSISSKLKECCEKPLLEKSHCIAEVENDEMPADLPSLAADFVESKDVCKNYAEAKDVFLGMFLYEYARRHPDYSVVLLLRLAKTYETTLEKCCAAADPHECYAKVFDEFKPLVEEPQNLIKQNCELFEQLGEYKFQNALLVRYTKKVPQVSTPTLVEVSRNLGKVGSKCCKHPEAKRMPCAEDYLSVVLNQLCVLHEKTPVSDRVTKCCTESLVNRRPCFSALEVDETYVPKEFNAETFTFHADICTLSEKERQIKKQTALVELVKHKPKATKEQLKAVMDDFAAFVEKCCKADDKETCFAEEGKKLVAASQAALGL

n (reaction stoichiometric number, modified Stern-Volmer) ([1]; 293 K): 0.91 ± 0.013
binding constant KA (modified Stern-Volmer) ([1]; 293 K, fit to Eq (2)): 3.31 ± 0.16 × 10^4 M^-1
Hill coefficient h (nonlinear regression fitting) ([1]; 293 K, one class of binding sites): ~1.0
ΔG ([1]; T 293 K): -5.614 kcal/mol
ΔG ([1]; T 298 K): -5.636 kcal/mol
n obtained by Hill equation ([1]; as quoted in the ITC comparison): 0.91
quenching rate constant Kq (Stern-Volmer) ([1]; fluorescence lifetime of tryptophan in HSA around 10^-8 s, 10 μM HSA): 1.36 ± 0.016 × 10^12 M^-1s^-1
ΔH ([1]; van't Hoff, 293 K and 298 K): -4.548 kcal/mol
ΔS ([1]; van't Hoff, 293 K and 298 K): 15.27 J mol^-1 K^-1
stoichiometry number [2]: 0.94 ± 0.06
ΔG [2]: -6.898 kcal/mol
ΔH [2]: -5.581 ± 0.605 kcal/mol
ΔS [2]: 17.81 J mol^-1 K^-1
binding constant (KA) ([2]; one-site independent model): 7.29 ± 2.68 × 10^4 M^-1
dissociation rate slower than that of NSC290956 [3]: approximately 5 fold
kinetic behavior ([3]; SPR sensorgram shape): fast-on and slow-off
Ka (association rate constant) ([3]; SPR, 1:1 kinetic model): 2410 M⁻¹ s⁻¹
koff (dissociation rate constant) ([3]; SPR, 1:1 kinetic model): 0.0333 s⁻¹
Kd ([3]; SPR, 1:1 kinetic model, read-out: KD (dividing kinetic parameters, 1:1 model)): 13.8 µM
Kd ([3]; SPR, steady-state phase data, read-out: Steady State KD): 12.3 µM
binding affinity to HSA larger than that of NSC290956 ([3]; as measured with different experimental methods): 3~8 fold
donor-acceptor distance r between HSA and lead [4]: 3.65 nm
compound bound to plasma proteins (plasma proteins): over 98%
SMILES: CC(=O)OCCC(C)CCC=C(C)C (centres unmarked) [NSC48693]

Reference: publication PMC5398698, “Uncovering the molecular and physiological processes of anticancer leads binding human serum albumin: A physical insight into drug efficacy” (PLoS ONE, 2017)
